In US20120196766A1, “Therapeutic Use of Farnesyltransferase Inhibitors and Methods of Monitoring the Efficacy Thereof” (priority 2004, published 2012):

Test system: THP-1 cells
Experiment: cDNA microarray analysis of LPS-induced gene transcription in THP-1 cells
Type: cell-based, Human
Description: THP-1 cells were cultured in RPMI1640 medium, supplemented with 10% FBS/100 units/ml Penicillin/10 μg/ml Streptomycin at 37° C., under 5% CO2. […] For the untreated control group (no LPS, no compound) and LPS alone group, equivalent volumes of DMSO were added to the medium. Cells were cultured at 37° C. and pellets were collected at 0 hr, 1 hr, 3 hr, 6 hr, 12 hr & 24 hr. Cell pellets were stored at −80° C. if RNA isolation was not conducted immediately. For experiments to study cytokine secretion in culture supernatants, THP-1 cells were washed twice with PBS, resuspended at 3.4×10^5/ml and cultured in 96-well plates at 250 μL, per well at 37° C. […] Supernatants were collected at different time points as indicated in the figures and were kept at ≦−20° C. until analysis of cytokine production.
Total RNA was isolated using RNeasy mini kit from QIAGEN (Valencia, Calif.) according to the manufacturer's instructions. RNA samples were stored at −80° C.
Five μg of total RNA was linearly amplified to double-stranded cDNA using T7-based amplification. The cDNA was purified using the QIAquick 96 PCR purification kit (QIAGEN Valencia, Calif.), and used to generate amplified (a) RNA using AmpliScribe™ T7 High Yield Transcription Kit (Epicentre, Madison, Wis.). Ten μg of purified aRNA was reverse transcribed to cDNA using the SuperScript RTII kit (Invitrogen) and labeled by direct incorporation of Cy3-dCTP. The generated cDNA probe was used for hybridizing to cDNA microarrays.
Each clone was spotted in duplicate on the array.

[1] = LPS 100 ng/ml, tipifarnib 5 μM, 3 hr
[2] = LPS 100 ng/ml, tipifarnib 5 μM, 6 hr
[3] = LPS 100 ng/ml, tipifarnib 5 μM, 12 hr
[4] = LPS 100 ng/ml, tipifarnib 5 μM, 24 hr

SMILES: Cn1cncc1C(N)(c1ccc(Cl)cc1)c1ccc2c(c1)c(-c1cccc(Cl)c1)cc(=O)n2C (single isomer, unassigned; (+)) [tipifarnib, (+)-6-[amino(4-chlorophenyl)(1-methyl-1H-imidazol-5-yl)methyl]-4-(3-chlorophenyl)-1-methyl-2(1H)-quinolinone]
- Fold-change (tipifarnib/LPS vs LPS) STAT1 [1]: −1.32
- Fold-change (tipifarnib/LPS vs LPS) TAP1 [1]: 1.15
- Fold-change (tipifarnib/LPS vs LPS) TAP2 [1]: −1.15
- Fold-change (tipifarnib/LPS vs LPS) TIMP3 [1]: −1.41
- Fold-change (tipifarnib/LPS vs LPS) TRIM22 [1]: 1.00
- Fold-change (tipifarnib/LPS vs LPS) UBE2L6 [1]: −1.07
- Fold-change (tipifarnib/LPS vs LPS) B2M [2]: −1.23
- Fold-change (tipifarnib/LPS vs LPS) C3AR1 [2]: −1.23
- Fold-change (tipifarnib/LPS vs LPS) CCL3 [2]: −1.07
- Fold-change (tipifarnib/LPS vs LPS) CCL4 [2]: 1.07
- Fold-change (tipifarnib/LPS vs LPS) CCND1 [2]: −1.15
- Fold-change (tipifarnib/LPS vs LPS) IER3 [2]: 1.15
- Fold-change (tipifarnib/LPS vs LPS) IFI16 [2]: −1.32
- Fold-change (tipifarnib/LPS vs LPS) IFIT1 [2]: −1.41
- Fold-change (tipifarnib/LPS vs LPS) IGFBP3 [2]: 1.00
- Fold-change (tipifarnib/LPS vs LPS) IL8 [2]: −1.15
- Fold-change (tipifarnib/LPS vs LPS) KCNK17 [2]: −1.32
- Fold-change (tipifarnib/LPS vs LPS) LGR7 [2]: −1.41
- Fold-change (tipifarnib/LPS vs LPS) MMP9 [2]: −1.41
- Fold-change (tipifarnib/LPS vs LPS) NEXN [2]: −1.41
- Fold-change (tipifarnib/LPS vs LPS) NFKB2 [2]: −1.07
- Fold-change (tipifarnib/LPS vs LPS) PTX3 [2]: −1.32
- Fold-change (tipifarnib/LPS vs LPS) S100A9 [2]: −1.07
- Fold-change (tipifarnib/LPS vs LPS) TIMP3 [2]: −1.23
- Fold-change (tipifarnib/LPS vs LPS) UBE2L6 [2]: −1.41
- Fold-change (tipifarnib/LPS vs LPS) ABCB8 [3]: −1.23
- Fold-change (tipifarnib/LPS vs LPS) CCL3 [3]: 1.23
- Fold-change (tipifarnib/LPS vs LPS) GNPNAT1 [3]: −1.41
- Fold-change (tipifarnib/LPS vs LPS) IER3 [3]: 1.00
- Fold-change (tipifarnib/LPS vs LPS) IFI16 [3]: −1.23
- Fold-change (tipifarnib/LPS vs LPS) IFIT1 [3]: −1.32
- Fold-change (tipifarnib/LPS vs LPS) IL1RN [3]: −1.15
- Fold-change (tipifarnib/LPS vs LPS) IL8 [3]: 1.32
- Fold-change (tipifarnib/LPS vs LPS) KCNK17 [3]: 1.00
- Fold-change (tipifarnib/LPS vs LPS) LAP3 [3]: −1.23
- Fold-change (tipifarnib/LPS vs LPS) LY6E [3]: 1.15
- Fold-change (tipifarnib/LPS vs LPS) MX1 [3]: 1.32
- Fold-change (tipifarnib/LPS vs LPS) MYD88 [3]: −1.23
- Fold-change (tipifarnib/LPS vs LPS) NEXN [3]: −1.15
- Fold-change (tipifarnib/LPS vs LPS) NFKB2 [3]: −1.32
- Fold-change (tipifarnib/LPS vs LPS) PTX3 [3]: −1.32
- Fold-change (tipifarnib/LPS vs LPS) STAT1 [3]: 1.00
- Fold-change (tipifarnib/LPS vs LPS) TAP1 [3]: −1.15
- Fold-change (tipifarnib/LPS vs LPS) TAP2 [3]: −1.32
- Fold-change (tipifarnib/LPS vs LPS) TIMP3 [3]: −1.15
- Fold-change (tipifarnib/LPS vs LPS) TRIM22 [3]: −1.07
- Fold-change (tipifarnib/LPS vs LPS) UBE2L6 [3]: −1.15
- Fold-change (tipifarnib/LPS vs LPS) ABCB8 [4]: −1.23
- Fold-change (tipifarnib/LPS vs LPS) B2M [4]: 1.15
- Fold-change (tipifarnib/LPS vs LPS) CCND1 [4]: −1.23
- Fold-change (tipifarnib/LPS vs LPS) IER3 [4]: 1.23
- Fold-change (tipifarnib/LPS vs LPS) IL1B [4]: −1.23
- Fold-change (tipifarnib/LPS vs LPS) IL8 [4]: −1.07
- Fold-change (tipifarnib/LPS vs LPS) LY6E [4]: −1.32
- Fold-change (tipifarnib/LPS vs LPS) MMP9 [4]: −1.41
- Fold-change (tipifarnib/LPS vs LPS) MX1 [4]: −1.32
- Fold-change (tipifarnib/LPS vs LPS) MYD88 [4]: −1.32
- Fold-change (tipifarnib/LPS vs LPS) TAP1 [4]: −1.23
- Fold-change (tipifarnib/LPS vs LPS) TAP2 [4]: −1.23
- Fold-change (tipifarnib/LPS vs LPS) TIMP3 [4]: 1.15
- Fold-change (tipifarnib/LPS vs LPS) UBE2L6 [4]: −1.41
- number of LPS-induced transcripts downregulated (out of 121 genes with at least […] induction by LPS at 2 time points, at least […] decrease at one or more time points): 34
